Measured values taken from publication PMC8979682, “Synthesis, Antioxidant, and Antidiabetic Activities of Ketone Derivatives of Succinimide” (Evidence-based Complementary and Alternative Medicine : eCAM, 2022).
Converted amounts (≈) assume the structure as drawn.

Legend:
ABTS scavenging activity = format: biochemical
Procedure: For the determination of the antioxidant activity of the synthesized compounds, the previously reported method for ABTS scavenging activity was used with slight modification. The stock solution of 2.4 mM of potassium per sulfate solution and 7 mM ABTS solution was prepared by mixing them in equal volumes for 16 h. The stock solution thus prepared was diluted using methyl alcohol to give absorption of 0.7 ± 0.02 units when studied at the wavelength of 734 nm using a spectrophotometer. Fresh ABTS solution was prepared for each ABTS scavenging assay. About 150 μL of the ABTS working solution was added to 50 μL of synthesized compounds and kept in darkness for 10 min. […] Methanol was used as blank, and standard ascorbic acid was run at the same time. The absorbance was calculated utilizing a microplate reader at 734 nm.

DPPH scavenging activity = format: biochemical
Procedure: The antioxidant assay of the synthesized compounds was conducted following the previously reported method. A freshly prepared DPPH solution (50 μL of 1.0 × 10^−3 M) was added in methyl alcohol. Methanol was used as a control in this experiment. The prepared mixture was subjected to incubation at 25°C for 30 min. A decrease in the DPPH free radical concentration was calculated using a spectrophotometer at a wavelength of 517 nm. After incubation ascorbic acid was used as a positive control. The antioxidant activity was determined as a percent (%) of inhibition using the formula given:(1) percent inhibition=absorbancecontrol−absorbancesample/absorbancecontrol×100.

α-glucosidase = assay: in vitro α-glucosidase inhibition; format: biochemical
Procedure: For in vitro α-glucosidase activity, samples were prepared by adding glucopyranoside to phosphate buffer solvent, and different concentrations of the synthesized compounds (31.25, 62.5, 125, 250, and 500 µg/ml), respectively, were added to this solution and then the enzyme glucosidase in distilled water (0.5 µg/ml) was also added to the above mixture. The reaction mixture thus prepared was subjected to incubation at 37°C for 20 minutes. The reaction was halted by adding HCl after incubation of the mixture. The intensity of the color was determined at 540 nm by spectrophotometer, and the formula given below was used for the determination of percent inhibition:(2) percent inhibition=absorbancecontrol−absorbancesample/absorbancecontrol×100.

α-amylase = assay: in vitro α-amylase inhibition; format: biochemical
Procedure: The starch solution was added, following incubation of the mixture, and the reaction mixture thus prepared was kept in water bath at 100°C for some time. Microplate reader measured the intensity of the color at 656 nm. Following formula was used to determine percentage inhibition:(3) percent inhibition=absorbancecontrol−absorbancesample/absorbancecontrol×100.

[1] = test system: diabetic mice (by alloxan); assay: antidiabetic activity in diabetic mice (by alloxan); format: in vivo
Procedure: Alloxan was used for the induction of diabetes mellitus according to reported procedure. Recently prepared Alloxan (ALX) was injected intraperitoneally to animals, fasting for 16 h, at a single dose of (150 mg/kg). […] Only diabetic animals, having random blood glucose level more than 200 mg/dl, were selected for studies. All the experimental procedure were approved from the ethical committee department of pharmacy, University of Swabi via letter No; UOS-06/2021.
A total of 30 animals were used to determine the hypoglycemic effect of the synthesized derivatives of succinimide. The experimental animals were segregated in six groups […], having five (5) animals in each group. Group I was designated as normal group and was given normal saline I/P only. Group II was given Tween 80, and Group III was given standard drug (glibenclamide) after the induction of diabetes. Group IV, Group V, and Group VI were given the various doses of synthesized compounds, respectively. […]

mice = assay: oral glucose tolerance test (OGTT); format: in vivo; conditions: glucose 2 g/kg orally
Procedure: To perform OGTT mice fasted overnight were used including both control and treated mice. Glucose was administered orally at the dose of 2 g/kg against glibenclamide as standard drug. After administration of glucose, blood glucose level was calculated at time intervals of 0, 30, 60, and 120 min for assessment of the impact of exogenously given D-glucose on treated mice. OGTT was carried out 5 days before the completion of the study.
To perform OGTT, mice fasted overnight were used including both control and treated mice. Glucose was administered orally at the dose of 2 g/kg against glibenclamide as a standard drug. After administration of glucose, blood glucose level was calculated at time intervals of 0, 30, 60, and 120 min for assessment of the impact of exogenously given D-glucose on treated mice.

Q: What does the source list for `O=C1CCCCC1C1CC(=O)N(c2ccc(Br)cc2)C1=O` (stereo not drawn) [BW3, (4-Bromophenyl)-3-(2-Oxocyclohexyl) Pyrrolidine-2,5-Dione]?
A: IC50 (ABTS) (ABTS scavenging activity): 36.82 µg/mL (≈ 105 µM); (%) ABTS inhibitions (ABTS scavenging activity; 31.25 µg/ml): 48.42 ± 0.43^ns %; (%) ABTS inhibitions (ABTS scavenging activity; 62.50 µg/ml): 53.33 ± 0.66^∗ %; (%) ABTS inhibitions (ABTS scavenging activity; 125 µg/ml): 58.40 ± 0.82^∗∗∗ %; (%) ABTS inhibitions (ABTS scavenging activity; 250 µg/ml): 64.90 ± 0.45^∗∗∗ %; (%) ABTS inhibitions (ABTS scavenging activity; 500 µg/ml): 70.56 ± 1.06^∗∗∗ %; IC50 (DPPH) (DPPH scavenging activity): 15.93 µg/mL (≈ 45.5 µM); (%) DPPH inhibitions (DPPH scavenging activity; 31.25 µg/ml): 57.69 ± 0.77^∗∗∗ %; (%) DPPH inhibitions (DPPH scavenging activity; 62.50 µg/ml): 66.67 ± 0.61^∗∗∗ %; (%) DPPH inhibitions (DPPH scavenging activity; 125 µg/ml): 71.79 ± 0.63^∗∗ %; (%) DPPH inhibitions (DPPH scavenging activity; 250 µg/ml): 76.90 ± 0.48^∗ %; (%) DPPH inhibitions (DPPH scavenging activity; 500 µg/ml): 83.03 ± 0.48^∗ %; IC50 (α-glucosidase) (α-glucosidase): 12.15 µg/mL (≈ 34.7 µM); % inhibitions (α-glucosidase) (α-glucosidase; 31.25 µg/ml): 57.47 ± 0.56^∗∗∗ %; % inhibitions (α-glucosidase) (α-glucosidase; 62.50 µg/ml): 63.28 ± 0.57^∗∗∗ %; % inhibitions (α-glucosidase) (α-glucosidase; 125 µg/ml): 67.90 ± 0.96^∗∗∗ %; % inhibitions (α-glucosidase) (α-glucosidase; 250 µg/ml): 72.08 ± 0.47^∗∗∗ %; % inhibitions (α-glucosidase) (α-glucosidase; 500 µg/ml): 77.85 ± 2.24^∗∗∗ %; IC50 (α-amylase) (α-amylase): 18.20 µg/mL (≈ 52 µM); % inhibitions (α-amylase) (α-amylase; 31.25 µg/ml): 54.67 ± 0.35^∗∗∗ %; % inhibitions (α-amylase) (α-amylase; 62.50 µg/ml): 62.16 ± 0.12^∗∗∗ %; % inhibitions (α-amylase) (α-amylase; 125 µg/ml): 67.62 ± 0.03^∗∗∗ %; % inhibitions (α-amylase) (α-amylase; 250 µg/ml): 71.36 ± 1.15^∗∗∗ %; % inhibitions (α-amylase) (α-amylase; 500 µg/ml): 75.35 ± 0.89^∗∗∗ %; Change in body weight ([1]; dose 31.25 μg/kg): −8.4 Gm; Decrease in blood glucose after 15 days ([1]; dose 31.25 μg/kg): -39 mg/dL; Blood glucose level, 0 day ([1]; dose 31.25 μg/kg): 439 mg/dL; Blood glucose level, 4th day ([1]; dose 31.25 μg/kg): 446 mg/dL; Blood glucose level, 7th day ([1]; dose 31.25 μg/kg): 457 mg/dL; Blood glucose level, 10th day ([1]; dose 31.25 μg/kg): 468 mg/dL; Blood glucose level, 15th day ([1]; dose 31.25 μg/kg): 478 mg/dL; Change in body weight ([1]; dose 62.5 μg/kg): −6.2 Gm; Decrease in blood glucose after 15 days ([1]; dose 62.5 μg/kg): -56 mg/dL; Blood glucose level, 0 day ([1]; dose 62.5 μg/kg): 443 mg/dL; Blood glucose level, 4th day ([1]; dose 62.5 μg/kg): 465 mg/dL; Blood glucose level, 7th day ([1]; dose 62.5 μg/kg): 478 mg/dL; Blood glucose level, 10th day ([1]; dose 62.5 μg/kg): 493 mg/dL; Blood glucose level, 15th day ([1]; dose 62.5 μg/kg): 499 mg/dL; Change in body weight ([1]; dose 125 μg/kg): +5.3 Gm; Decrease in blood glucose after 15 days ([1]; dose 125 μg/kg): -29 mg/dL; Blood glucose level, 0 day ([1]; dose 125 μg/kg): 387 mg/dL; Blood glucose level, 4th day ([1]; dose 125 μg/kg): 437 mg/dL; Blood glucose level, 7th day ([1]; dose 125 μg/kg): 430 mg/dL; Blood glucose level, 10th day ([1]; dose 125 μg/kg): 424 mg/dL; Blood glucose level, 15th day ([1]; dose 125 μg/kg): 416 mg/dL; Change in body weight ([1]; dose 250 μg/kg): −5.1 Gm; Decrease in blood glucose after 15 days ([1]; dose 250 μg/kg): 35 mg/dL; Blood glucose level, 0 day ([1]; dose 250 μg/kg): 431 mg/dL; Blood glucose level, 4th day ([1]; dose 250 μg/kg): 419 mg/dL; Blood glucose level, 7th day ([1]; dose 250 μg/kg): 411 mg/dL; Blood glucose level, 10th day ([1]; dose 250 μg/kg): 403 mg/dL; Blood glucose level, 15th day ([1]; dose 250 μg/kg): 396 mg/dL; Change in body weight ([1]; dose 500 μg/kg): +2.5 Gm; Decrease in blood glucose after 15 days ([1]; dose 500 μg/kg): 49 mg/dL; Blood glucose level, 0 day ([1]; dose 500 μg/kg): 430 mg/dL; Blood glucose level, 4th day ([1]; dose 500 μg/kg): 420 mg/dL; Blood glucose level, 7th day ([1]; dose 500 μg/kg): 401 mg/dL; Blood glucose level, 10th day ([1]; dose 500 μg/kg): 387 mg/dL; Blood glucose level, 15th day ([1]; dose 500 μg/kg): 381 mg/dL; OGTT blood glucose, 0 minutes (mice; 0 minutes): 156.2 mg/dL; OGTT blood glucose, 30 minutes (mice; 30 minutes): 174.1 mg/dL; OGTT blood glucose, 60 minutes (mice; 60 minutes): 196.3 mg/dL; OGTT blood glucose, 120 minutes (mice; 120 minutes): 145.4 mg/dL
